Results published in US11236102B2, “Oxabicycloheptane prodrugs” (Lixte Biotechnology, Inc., priority 2015, dated 2022).
“Also recorded” adds a separate entry of the source.

Assay: Pharmacokinetic study of 100 (iv 0.5, 1.0, 1.5 mg/kg) in SD rats: 100 and endothal in plasma, liver, brain
Assay type: in vivo
Settings: for Endothal brain concentration / Endothal plasma concentration: SD rats
Procedure: 100 was administrated via iv route at 0.5, 1.0 and 1.5 mg/kg into SD rats. The blood, liver and brain tissue samples were collected at predetermined times from rats.
Twelve (12) female SD rats per group were dosed by iv with 100. The rats were fasted overnight prior to dosing, with free access to water. Foods were withheld for 2 hours post-dose. Blood, liver and brain tissue samples in two animals each group were collected at each time point, within 10% of the scheduled time for each time point. Two extra animals were used for analytic method development. Blood (>0.3 mL) were collected via aorta abdominalis in anaesthetic animals into tubes containing heparin at 15 min, 1, 2, 6, 10 and 24 hours after iv administration. Liver and brain tissues were collected immediately after animal death. The liver and brain tissues were excised and rinsed with cold saline to avoid blood residual. Upon collection, each sample was placed on ice and the blood samples were subsequently centrifuged (4° C., 11000 rpm, 5 min) to separate plasma. The obtained plasma, liver and brain tissue samples were stored at −70° C. until LC-MS/MS analysis.
AUC0-∞ (AUCINF) is the area under the plasma concentration-time curve with last concentration extrapolated based on the elimination rate constant.

[1] = 100 iv 0.5 mg/kg, 24 hr, individual rats
[2] = female, Sprague-Dawley, rat, in vivo, iv, 1.5 mg/kg

O=C(O)C1C2CCC(O2)C1C(=O)O (centres unmarked) [Endothal, 7-oxabicyclo[2.2.1]heptane-2,3-dicarboxylic acid]
Endothal brain concentration (100 iv 0.5 mg/kg, 0.25 hr, individual rats): BLQ
Endothal brain concentration (100 iv 0.5 mg/kg, 0.25 hr, mean): BLQ
Endothal brain concentration (100 iv 0.5 mg/kg, 1 hr, individual rats): BLQ
Endothal brain concentration (100 iv 0.5 mg/kg, 1 hr, mean): BLQ
Endothal brain concentration (100 iv 0.5 mg/kg, 2 hr, individual rats): BLQ
Endothal brain concentration (100 iv 0.5 mg/kg, 2 hr, mean): BLQ
Endothal brain concentration (100 iv 0.5 mg/kg, 6 hr, individual rats): BLQ
Endothal plasma concentration (100 iv 0.5 mg/kg, 6 hr, individual rats, 0.5 mg/kg): BLQ
Endothal brain concentration (100 iv 0.5 mg/kg, 6 hr, mean): BLQ
Endothal brain concentration (100 iv 0.5 mg/kg, 10 hr, individual rats): BLQ
Endothal brain concentration (100 iv 0.5 mg/kg, 10 hr, mean): BLQ
Endothal brain concentration [1]: BLQ
Endothal plasma concentration [1]: BLQ
Endothal brain concentration (100 iv 0.5 mg/kg, 24 hr, mean): BLQ
Endothal plasma concentration (100 iv 0.5 mg/kg, 24 hr, mean): BLQ
Endothal brain concentration (100 iv 1.0 mg/kg, 0.25 hr, individual rats): BLQ
Endothal brain concentration (100 iv 1.0 mg/kg, 0.25 hr, mean): BLQ
Endothal brain concentration (100 iv 1.0 mg/kg, 1 hr, individual rats): BLQ
Endothal brain concentration (100 iv 1.0 mg/kg, 1 hr, mean): BLQ
Endothal brain concentration (100 iv 1.0 mg/kg, 2 hr, individual rats): BLQ
Endothal brain concentration (100 iv 1.0 mg/kg, 2 hr, mean): BLQ
Endothal brain concentration (100 iv 1.0 mg/kg, 6 hr, individual rats): BLQ
Endothal brain concentration (100 iv 1.0 mg/kg, 6 hr, mean): BLQ
Endothal brain concentration (100 iv 1.0 mg/kg, 10 hr, individual rats): BLQ
Endothal brain concentration (100 iv 1.0 mg/kg, 10 hr, mean): BLQ
Endothal brain concentration (100 iv 1.0 mg/kg, 24 hr, individual rats): BLQ
Endothal brain concentration (100 iv 1.0 mg/kg, 24 hr, mean): BLO
Endothal brain concentration (100 iv 1.5 mg/kg, 0.25 hr, individual rats): BLQ
Endothal brain concentration (100 iv 1.5 mg/kg, 0.25 hr, mean): BLQ
Endothal brain concentration (100 iv 1.5 mg/kg, 1 hr, individual rats): BLQ
Endothal brain concentration (100 iv 1.5 mg/kg, 1 hr, mean): BLQ
Endothal brain concentration (100 iv 1.5 mg/kg, 2 hr, individual rats): BLQ
Endothal brain concentration (100 iv 1.5 mg/kg, 2 hr, mean): BLQ
Endothal brain concentration (100 iv 1.5 mg/kg, 6 hr, individual rats): BLQ
Endothal brain concentration (100 iv 1.5 mg/kg, 6 hr, mean): BLQ
Endothal brain concentration (100 iv 1.5 mg/kg, 10 hr, individual rats): BLQ
Endothal brain concentration (100 iv 1.5 mg/kg, 10 hr, mean): BLQ
Endothal brain concentration (100 iv 1.5 mg/kg, 24 hr, individual rats): BLQ
Endothal brain concentration (100 iv 1.5 mg/kg, 24 hr, mean): BLQ
half-life (Sprague-Dawley, rat, in vivo): ~360 min
detectability in brain samples (endothal after single iv 100 at 0.5, 1.0 and 1.5 mg/kg): not detectable; also recorded: undetectable
AUClast in plasma [2]: 546 to 4476 ng·h/mL
Cmax [2]: 349 to 2960 ng/g
T1/2 in liver [2]: 4.57 to 10.1 h
T1/2 in plasma [2]: 6.25 to 7.06 h
mean Cmax in plasma [2]: 577 to 1230 ng/mL
AUClast in liver (rat, in vivo, iv, 1.5 mg/kg): 2598 to 18434 ng·h/g
